The text below walks through data of ChEMBL document CHEMBL4033619, “Autophagy antagonizes apoptosis induced by flavan enantiomers from Daphne giraldii in hepatic carcinoma cells in vitro” (Eur J Med Chem, 2017).

Calls of active or inactive are those of the source. The calls are words filed in the database; no cut-off is given here. Where only a bound is given, the exact number is not on record here.

The subject of assay [1] is A549. Nature of the assay: Cytotoxicity against human A549 cells by MTT assay. The class given is functional, cell-based. (In general: Tetrazolium assays rely on reduction of a dye to a coloured formazan, in cell work by metabolically active cells.)
For assay [2], the system named is MCF7. The assay is described as follows: Growth inhibition of human MCF7 cells after 48 hrs by MTT assay. In kind it is functional, cell-based.
The subject of assay [3] is A549. The assay is described as follows: Growth inhibition of human A549 cells after 48 hrs by MTT assay. In kind it is functional, cell-based.
The subject of assay [4] is HepG2. Nature of the assay: Cytotoxicity against human HepG2 cells by MTT assay. In kind it is functional, cell-based.
Assay [5] concerns Hep 3B2. Nature of the assay: Growth inhibition of human Hep3B cells after 48 hrs by MTT assay. The class given is functional, cell-based.
In assay [6] the test system is HepG2. The assay is described as follows: Growth inhibition of human HepG2 cells after 48 hrs by MTT assay. In kind it is functional, cell-based.
Assay [7] has as its system MCF7. The assay is described as follows: Cytotoxicity against human MCF7 cells by MTT assay. The class given is functional, cell-based.
The test system of assay [8] is Hep 3B2. The assay is described as follows: Cytotoxicity against human Hep3B cells by MTT assay. In kind it is functional, cell-based.
The test system of assay [9] is Hep 3B2. The assay is described as follows: Induction of apoptosis in human Hep3B cells assessed as increase in caspase 7 level by Western blot analysis. The class given is functional, cell-based. In general terms: In western blotting, separated proteins are transferred to a membrane and probed.
The subject of assay [10] is Hep 3B2. The assay is described as follows: Induction of apoptosis in human Hep3B cells assessed as increase in caspase 8 level at 30 uM in presence of autophagy inhibitor bafilomycin A1 by Western blot analysis. The class given is functional, cell-based.
Assay [11] deals with Hep 3B2. Nature of the assay: Induction of apoptosis in human Hep3B cells assessed as nuclear fragmentaion at 30 uM after 48 hrs by Hoechst 33258 staining-based fluorescence microscopy. The class given is functional, cell-based.
Assay [12] concerns Hep 3B2. The assay is described as follows: Induction of apoptosis in human Hep3B cells assessed as chromatin condensation at 30 uM in presence of autophagy inhibitor bafilomycin A1 by Hoechst 33258 staining-based fluorescence microscopy. In kind it is functional, cell-based.
In assay [13] the test system is Hep 3B2. The assay is described as follows: Induction of apoptosis in human Hep3B cells assessed as decrease in PARP level at 15 to 60 uM by Western blot analysis. In kind it is functional, cell-based.
Assay [14] concerns Hep 3B2. Nature of the assay: Effect on AMPK expression in human Hep3B cells at 15 to 60 uM by Western blot analysis. The class given is functional, cell-based.
The subject of assay [15] is Hep 3B2. Nature of the assay: Induction of autophagy in human Hep3B cells assessed as decrease in p62 level at 15 to 60 uM by Western blot analysis. In kind it is functional, cell-based.
Assay [16] concerns Hep 3B2. Nature of the assay: Induction of autophagy in human Hep3B cells at 30 uM after 48 hrs by MDC staining-based fluorescence microscopic method. In kind it is functional, cell-based.
Assay [17] has as its system Hep 3B2. The assay is described as follows: Induction of apoptosis in human Hep3B cells assessed as decrease in PARP level at 30 uM in presence of autophagy inhibitor bafilomycin A1 by Western blot analysis. The class given is functional, cell-based.
Assay [18] deals with T1, AMP-activated protein kinase, AMPK (Homo sapiens) (UniProt P54646+O43741+P54619+Q9UGJ0+Q9Y478+Q13131+Q9UGI9). The assay is described as follows: Increase in AMPK phosphorylation at Thr172 in human Hep3B cells at 30 uM in presence of autophagy inhibitor bafilomycin A1 by Western blot analysis. The class given is cell-based.
The subject of assay [19] is Hep 3B2. The assay is described as follows: Induction of apoptosis in human Hep3B cells assessed as increase in caspase 7 level at 30 uM in presence of autophagy inhibitor bafilomycin A1 by Western blot analysis. The class given is functional, cell-based.
The subject of assay [20] is Hep 3B2. The assay is described as follows: Cytotoxicity against human Hep3B cells assessed as reduction in cell growth at 30 uM in presence of autophagy inhibitor bafilomycin A1 by MTT assay. In kind it is functional, cell-based.
Assay [21] deals with Hep 3B2. Nature of the assay: Induction of autophagy in human Hep3B cells assessed as increase in conversion of LC3-1 to LC3-2 at 10 to 60 uM by Western blot analysis. In kind it is functional, cell-based.
Assay [22] deals with Hep 3B2. The assay is described as follows: Induction of apoptosis in human Hep3B cells assessed as membrane blebbing at 30 uM after 48 hrs by phase contrast microscopic analysis. The class given is functional, cell-based.
The subject of assay [23] is Hep 3B2. Nature of the assay: Induction of apoptosis in human Hep3B cells assessed as increase in FADD level at 30 uM in presence of autophagy inhibitor bafilomycin A1 by Western blot analysis. In kind it is functional, cell-based.
In assay [24] the test system is Hep 3B2. The assay is described as follows: Induction of apoptosis in human Hep3B cells assessed as increase in cleaved PARP level at 30 uM in presence of autophagy inhibitor bafilomycin A1 by Western blot analysis. The class given is functional, cell-based.
Assay [25] deals with Hep 3B2. Nature of the assay: Down regulation of AMPK expression in human Hep3B cells at 30 uM in presence of autophagy inhibitor bafilomycin A1 by Western blot analysis. In kind it is functional, cell-based.
Assay [26] has as its system Hep 3B2. The assay is described as follows: Induction of apoptosis in human Hep3B cells assessed as increase in Bax level at 30 uM in presence of autophagy inhibitor bafilomycin A1 by Western blot analysis. In kind it is functional, cell-based.
Assay [27] deals with Hep 3B2. Nature of the assay: Induction of apoptosis in human Hep3B cells assessed as increase in FADD level by Western blot analysis. The class given is functional, cell-based.
Assay [28] concerns Hep 3B2. Nature of the assay: Induction of apoptosis in human Hep3B cells assessed as effect on cleaved PARP level at 15 to 60 uM by Western blot analysis. The class given is functional, cell-based.
The subject of assay [29] is Hep 3B2. The assay is described as follows: Induction of apoptosis in human Hep3B cells assessed as cell shrinkage at 30 uM after 48 hrs by phase contrast microscopic analysis. In kind it is functional, cell-based.
The subject of assay [30] is Hep 3B2. Nature of the assay: Induction of apoptosis in human Hep3B cells assessed as nuclear fragmentation at 30 uM in presence of autophagy inhibitor bafilomycin A1 by Hoechst 33258 staining-based fluorescence microscopy. In kind it is functional, cell-based.
Assay [31] has as its system Hep 3B2. The assay is described as follows: Induction of apoptosis in human Hep3B cells assessed as increase in caspase 8 level by Western blot analysis. The class given is functional, cell-based.
The target in assay [32] is T1, AMP-activated protein kinase, AMPK (Homo sapiens). Nature of the assay: Increase in AMPK phosphorylation at Thr172 in human Hep3B cells at 15 to 60 uM by Western blot analysis. In kind it is cell-based.
Assay [33] relates to Hep 3B2. Nature of the assay: Induction of apoptosis in human Hep3B cells assessed as chromatin condensation at 30 uM after 48 hrs by Hoechst 33258 staining-based fluorescence microscopy. The class given is functional, cell-based.
Assay [34] deals with Hep 3B2. Nature of the assay: Induction of apoptosis in human Hep3B cells assessed as increase in caspase 9 level by Western blot analysis. The class given is functional, cell-based.
Assay [35] concerns Hep 3B2. The assay is described as follows: Induction of apoptosis in human Hep3B cells assessed as increase in caspase 9 level at 30 uM in presence of autophagy inhibitor bafilomycin A1 by Western blot analysis. In kind it is functional, cell-based.
The test system of assay [36] is Hep 3B2. The assay is described as follows: Induction of apoptosis in human Hep3B cells assessed as increase in Bax level by Western blot analysis. In kind it is functional, cell-based.

Broadly, the IC50 is the concentration at which inhibition is half-maximal. High values mean weaker potency, low ones greater potency. Take `CC(C)=CCc1c([C@@H]2CCc3ccc(O)cc3O2)ccc(O)c1O`: the 50% inhibitory concentration (IC50) was > 100 µM with A549 [1], > 100 µM in the assay on HepG2 [4], > 100 µM in the assay on MCF7 [7] and 62.2 µM in the assay on Hep 3B2 [8]. Also, the “growth inhibition (GI)” value in the assay on MCF7 [2], with A549 [3], in the assay on Hep 3B2 [5] and with HepG2 [6] was “Dose-dependent effect” each time.

`CC1(C)CCc2c(C3CCc4ccc(O)cc4O3)ccc(O)c2O1` (racemic): the IC50 in the assay on A549 [1] is > 100 µM; with HepG2 [4] it was > 100 µM; in the assay with MCF7 [7] it was > 100 µM; with Hep 3B2 [8], 51 µM. Besides, the “growth inhibition (GI)” value with MCF7 [2], with A549 [3], in the assay with Hep 3B2 [5] and with HepG2 [6] was “Dose-dependent effect” each time.

On to `CC(C)=CCc1c([C@@H]2CCc3ccc(O)cc3O2)cc2c(c1O)OC(C)(C)C=C2` [KAZINOL B], for which the IC50 is > 100 µM in the assay with A549 [1], 58.4 µM with HepG2 [4], > 100 µM with MCF7 [7] and 39 µM with Hep 3B2 [8]. The “growth inhibition (GI)” value in the assay on MCF7 [2], with A549 [3], with Hep 3B2 [5] and with HepG2 [6] was “Dose-dependent effect” throughout.

As for `O=c1[nH]cc(F)c(=O)[nH]1` [FLUOROURACIL], the half-maximal inhibitory concentration (IC50) amounted to 32.6 µM in the assay on HepG2 [4], 30 µM in the assay with MCF7 [7] and 11.9 µM with Hep 3B2 [8].

With `CC(C)=CCc1c([C@H]2CCc3ccc(O)cc3O2)cc2c(c1O)OC(C)(C)C=C2`, the IC50 in the assay on A549 [1] is > 100 µM; in the assay with HepG2 [4], 64.2 µM; in the assay with MCF7 [7], > 100 µM; in the assay with Hep 3B2 [8], 30.3 µM. Further, the Activity entry with Hep 3B2 [9], with Hep 3B2 [27], in the assay on Hep 3B2 [31], with Hep 3B2 [34] and in the assay with Hep 3B2 [36] was “Dose-dependent effect” throughout. Besides, the result in the assay on Hep 3B2 [10], with Hep 3B2 [11], with Hep 3B2 [12], with Hep 3B2 [13], with Hep 3B2 [15] and in the assay with Hep 3B2 [16] was Active. Also, the outcome (in the assay on Hep 3B2 [17]; in assay [18]; in the assay with Hep 3B2 [19]; in the assay on Hep 3B2 [20]; in the assay with Hep 3B2 [21]; with Hep 3B2 [22]) was Active. Moreover, the outcome in the assay with Hep 3B2 [23], in the assay with Hep 3B2 [24], with Hep 3B2 [25], in the assay on Hep 3B2 [26], in the assay with Hep 3B2 [28] and with Hep 3B2 [29] was Active. For the same compound, the outcome (in the assay on Hep 3B2 [30]; in assay [32]; in the assay with Hep 3B2 [33]; in the assay with Hep 3B2 [35]) was Active. Further, the “growth inhibition (GI)” value with MCF7 [2], with A549 [3], in the assay on Hep 3B2 [5] and with HepG2 [6] was “Dose-dependent effect” in each case. In the assay on Hep 3B2 [14], the result was inactive.

For the compound `CC1(C)CCc2c([C@@H]3CCc4ccc(O)cc4O3)ccc(O)c2O1`, the IC50 was > 100 µM in the assay with A549 [1], > 100 µM in the assay on HepG2 [4], > 100 µM in the assay on MCF7 [7] and 44.7 µM with Hep 3B2 [8]. Further, the “growth inhibition (GI)” value with MCF7 [2], with A549 [3], in the assay on Hep 3B2 [5] and with HepG2 [6] was “Dose-dependent effect” in each case.
